Data on 6 compounds can be found in publication PMC9229949 (Pharmaceutics, 2022).

SMILES strings stand for the structures. Like-named read-outs stand apart in the source and are kept apart here.

Series [1] has as its system β-hematin formation from Fe(III)PPIX (hematin). Nature of the series: β-hematin inhibition activity, oxidizing conditions (O-BHIA, hematin). It counts as biochemical. The settings on record: 18 h incubation; median ± S.E.M. of three experiments; free bases; read-out: β-Hematin Inhibitory Activity (BHIA) O-BHIA (Hematin), IC50. The procedure:
(§1) A hemin chloride (10 μL of 4 mM stock in 80% DMSO) aliquot was dispensed in a U bottom 96-well microplate, and then, 10 μL of 0.1 M NaOH (O-BHIA) or 4 mM reduced glutathione in PBS at pH 7.0 (R-BHIA) was added, and plates were sealed and incubated at 37 °C for 2 h. After this, 10 μL of the drug dissolved in DMSO was added and incubated for 2 h, followed by the addition of 180 μL of sodium acetate buffer (1.0 M, pH 5.2) and 10 μL of nonionic detergent IGEPAL-CA-630 solution in methanol (10 mg/mL). Plates were sealed and incubated at 37 °C for 18 h. […] The reaction was stopped by the addition of 50 μL of a sodium dodecyl sulfate solution (5.0% v/v in 0.1 M bicarbonate buffer at pH 9.0). Plates were centrifuged at 3700 rpm for 5 min, and 100 μL of supernatant was placed in a separate plate. […] Two independent experiments were performed, and each drug concentration was tested in quadruplicate concentrations.

The subject of series [2] is β-hematin formation from Fe(II)PPIX (heme). Nature of the series: β-hematin inhibition activity, reducing conditions (R-BHIA, heme). It counts as biochemical. The note with it: 18 h incubation; median ± S.E.M. of three experiments; free bases; read-out: β-Hematin Inhibitory Activity (BHIA) R-BHIA (Heme), IC50. How it is done:
as §1

The test system of series [3] is P. falciparum 3D7 (CQ-susceptible) asexual blood stages. Description: In vitro activity against asexual blood stages of P. falciparum, CQ-susceptible strain 3D7 (HRP2 ELISA). In kind it is cell-based. The note with it: Plasmodium falciparum, read-out: P. falciparum, IC50 ± S.E.M., CQ-Susceptible 3D7. The procedure: (§2) The plates were incubated for 72 h at 37 °C in controlled atmosphere. After frozen and thawing the plates, hemolyzed cultures were homogenized by vortexing the plates. The antiparasitic activity was determined using the HRP2 ELISA-based assay Malaria Ag Celisa kit (ref KM2159, Cellabs PTY LDT, Brookvale, Australia). […] IC50s are expressed as means of three to five experiments.
(An ELISA detects its analyte on a solid surface through an enzyme-linked reagent.)

Series [4] has as its system P. falciparum W2 (CQ-resistant) asexual blood stages. Nature of the series: In vitro activity against asexual blood stages of P. falciparum, CQ-resistant strain W2 (HRP2 ELISA). It counts as cell-based. The settings on record: Plasmodium falciparum, read-out: P. falciparum, IC50 ± S.E.M., CQ-Resistant W2. The procedure: as §2
Series [5] deals with β-hematin formation. Nature of the series: β-hematin formation inhibition by infrared spectroscopy. The settings on record: 3:1 ratio of drug:hematin, qualitative by infrared. On the set-up: key: Yes indicates β-hematin inhibition; No indicates β-hematin formation. It counts as biochemical. How it is done:
The conversion of hemin to β-hematin was determined by infrared (IR) spectroscopy as described by Egan et al.. […] Then, 0.3 mL of 0.1 M HCl and 1.7 mL of sodium acetate buffer ([…], pH 5) were added at the same temperature. […] The solid was dried and IR spectra were obtained using attenuated total reflection (ATR) using chloroquine as a positive control.

Series [6] is described as follows: Interaction with reduced glutathione (GSH) by monochlorobimane fluorescence assay. The note with it: 2 h incubation, 10 to 0.3 drug:GSH molar ratio. How it is done:
Ten microliters per well of a solution of 2.0 mM reduced glutathione (Sigma-Aldrich, St. Louis, MO, USA, dissolved in PBS pH 7.2) was distributed in a 96-well microplate containing 170 μL/well of DMSO/PBS (1:1; v/v). Stock solutions of compounds were diluted in DMSO, and 10 μL was added in quadruplicate in the respective wells to a final concentration of 0.015 to 0.5 mM. […] After 1 h incubation at room temperature, fluorescence was recorded (λex = 360 nm, λem = 440 nm). Blank subtraction was performed prior to monochlorobimane addition, and controls included untreated wells (no drug) and no GSH. The results were expressed as a percentage of inhibition of GSH binding to monochlorobimane in comparison to control without compound. At least two independent experiments were performed.

The subject of series [7] is 3D7 P. falciparum gametocytes stages I/III. Nature of the series: P. falciparum young gametocytes (stages I/III), luciferase viability. In kind it is cell-based. The note with it: Plasmodium falciparum, read-out: IC50, gametocytes of P. falciparum, Stages I/III. The procedure: (§3) The activity of compounds was assessed against young gametocytes (stages I/III) and against mature gametocytes (stage V). […] A volume of 100 μL of 3D7elo1-pfs16-CBG99 gametocytes of 3D7 P. falciparum at 0.5–1% parasitemia and 2% hematocrit were dispensed. […] Luciferase activity was used to determine gametocytes viability. A volume of 100 µL of culture medium was removed from each well to increase hematocrit; 70 µL of resuspended culture was transferred to a black 96-well plate; 70 µL of D-luciferin (1 mM in citrate buffer 0.1 M, pH 5.5) was added. Luminescence measurements were performed after 10 min with 500 ms integration time. The IC50 was extrapolated from nonlinear regression analysis of the concentration–response curve.

For series [8], the system named is P. berghei sporozoites in Huh-7 cells. Description: P. berghei hepatic stages: infection of Huh-7 cells by luciferase-expressing sporozoites. The note with it: Plasmodium berghei, Huh-7, 48 h, read-out: Sporozoites (Inhibition of Infection, %). It counts as cell-based. How it is done:
Huh-7 cells at 1.0 × 10^4 per well were seeded in 96-well plates the day before drug treatment and infection. The culture medium was replaced by infection medium (culture medium supplemented with gentamicin (50 μg/mL) and amphotericin B (0.8 μg/mL)) containing the appropriate concentration of each compound for approximately 1 h prior to infection with sporozoites of firefly luciferase-expressing P. berghei, freshly obtained through the disruption of salivary glands of infected female Anopheles stephensi mosquitoes. An amount of the DMSO solvent equivalent to that present in the highest compound concentration was used as negative control. Sporozoite addition was followed by centrifugation at 1800× g for 5 min. and parasite infection load was measured 48 h after infection by using a bioluminescence assay (Biotium, Hayward, CA, USA). The effect of the compounds on the viability of Huh-7 cells was assessed by performing the AlamarBlue (Invitrogen, Waltham, MA, USA) assay according to the manufacturer’s protocol.

Series [9] relates to 3D7 P. falciparum gametocytes stage V. Nature of the series: P. falciparum mature gametocytes (stage V), luciferase viability. In kind it is cell-based. The settings on record: Plasmodium falciparum, 3D7, 72 h, read-out: IC50, gametocytes of P. falciparum, Stage V. How it is done:
as §3

Series [10] in a line: Cytotoxicity against J774 cells (CellTiter-Glo). It counts as cell-based, murine. The note with it: mouse, J774 macrophage cells; reference drug, J774; read-out: CC50 for J774. How it is done:
(§4) In vitro cytotoxicity was assayed against two mammalian cell lineages, J774 (murine macrophages) and HepG2 (human hepatocellular carcinoma). […] Cell cultures from 60 to 80% confluence were trypsinized, washed in complete medium, and 4 × 10^4 cells were plated in 100 µL per well with complete medium in 96-well flat-bottom white plates for 24 h at 37 °C prior to the addition of the compounds. Triplicate aliquots of compound and the reference drugs (stock solution in DMSO) covering 7 different concentrations at 2-fold dilutions were added to the wells, and plates were incubated for 72 h more. After incubation for 72 h at 37 °C, plates were maintained at room temperature, the culture medium was removed, and 100 µL volume of CellTiter-Glo reagent was added to each well. The bioluminescence was measured using a microplate reader Filtermax F5 Multi-Mode instrument (Molecular Devices) and Softmax software. […] The selectivity index (S.I.) was estimated using the IC50s from mammalian cells divided by the IC50 obtained against the asexual blood stage P. falciparum.

The nature of series [11]: Cytotoxicity against uninfected HepG2 cells (CellTiter-Glo). It counts as cell-based. The settings on record: human, reference drug. How it is done: as §4
Background: In ATP-based viability assays light output follows the ATP content of the culture.

`C[C@@H]1CC[C@H]2[C@@H](C)C(=O)O[C@@H]3O[C@@]4(C)CC[C@@H]1[C@]32OO4` [Artemisinin (ARS), artemisinin]: the IC50 in series [1] was over 1000 µM; in series [2], 60 ± 10 µM.

With `CCN(CC)CCCC(C)Nc1ccnc2cc(Cl)ccc12` (centres unmarked) [Chloroquine (CQ), chloroquine], the IC50 was 0.018 ± 0.002 µM in series [3] (3D7, 72 h); 0.459 ± 0.021 µM in [4] (W2, 72 h); 230 ± 40 µM in series [1]; 130 ± 30 µM in series [2]. For the same compound, the “β-Hematin Inhibitory Activity (BHIA) Determined by IR” value in [5] is “Yes”. Also, the “interaction with GSH” value in series [6] is reported as “neither CQ nor phenanthroline interacted with GSH”.

Take `C[C@H]1[C@@H](O)O[C@@H]2O[C@@]3(C)CC[C@H]4[C@H](C)CC[C@@H]1[C@@]24OO3` [DHA, dihydroartemisinin]: in series [7] (3D7 strain, 72 h, mean ± S.D. of one experiment), the IC50 turned out to be 0.0123 ± 0.0054 µM.

A word on the inhibition: it is the share of the control response that was lost under treatment. As for `COc1cc(NC(C)CCCN)c2ncccc2c1` (centres unmarked) [Primaquine (PQ), primaquine], the IC50 in series [3] (3D7, 72 h incubation, HRP2 ELISA, mean ± S.E.M. of at least three experiments, AQ hydrochloride hydrate, PQ diphosphate, CQ diphosphate) is 1.12 ± 0.053 µM; in series [4] (W2, 72 h incubation, HRP2 ELISA, mean ± S.E.M. of at least three experiments, AQ hydrochloride hydrate, PQ diphosphate, CQ diphosphate), 0.182 ± 0.016 µM; in series [7] (3D7, 72 h), 13.7 ± 7.6 µM; in series [9] it was 43.2 ± 10.6 µM; in series [1], over 1000 µM; in [2], over 1000 µM. Besides, in series [8], the inhibition at 10 µM was 52%. Besides, the “β-Hematin Inhibitory Activity (BHIA) Determined by IR” value in series [5] is recorded as “No”.

The term CC50 denotes the concentration giving 50% cytotoxicity. With `COc1cccc2c1C(=O)c1c(O)c3c(c(O)c1C2=O)C[C@@](O)(C(=O)CO)C[C@@H]3O[C@H]1C[C@H](N)[C@H](O)[C@H](C)O1` [doxorubicin], the half-maximal cytotoxic concentration (CC50) at 72 h in series [10] was 0.44 ± 0.31 µM; in [11] it was under 0.12 µM.

With `c1cnc2c(c1)ccc1cccnc12` [phenanthroline], the “interaction with GSH” value in series [6] was “neither CQ nor phenanthroline interacted with GSH”.
